According to paper PMC3170320, “Minimal Antizyme Peptide Fully Functioning in the Binding and Inhibition of Ornithine Decarboxylase and Antizyme Inhibitor” (PLoS ONE, 2011):
“Also recorded” adds a separate entry of the source.

Key:
[1] = biological target: human ODC; assay: ODC enzyme activity inhibition by AZ peptides (without AZI); format: biochemical; details: for IC50 (AZ peptide)/IC50 (AZ_WT): ratio to AZ_WT; for IC50: ODC fixed at 20 µg/mL (0.19 µM), CO2-L3K coupled assay, 405 nm, 37°C, 30 mM Tris-HCl pH 7.8, 10 mM ornithine, 0.2 mM PLP, fit of inhibition curves; for ODC inhibition ability (in words): relative ODC activity, Figure 2
Experimental: Figure 2 Relative ODC enzyme activity in the presence of AZ peptides. The activity of ODC was inhibited by various concentrations of AZ peptides. ODC concentrations were fixed at 20 µg/mL (0.19 µM). The IC50 values of AZ peptides shown in Table 1 were derived from fitting these inhibition curves. The molar ratio refers to AZ peptide versus ODC monomer.
(§1) The ODC enzyme activity was determined using a CO2-L3K assay kit (DCL, Charlottetown, Canada) at 37°C. The continuous measurement of ODC enzyme activity was coupled to the carboxylation of PEP to oxaloacetate and the oxidation of oxaloacetate to malate, as previously reported. The reaction mixture contains 30 mM Tris-HCl at pH 7.8, 10 mM ornithine, 0.2 mM […] and 0.4 ml of the CO2-L3K assay kit solution, which contains 12.5 mM PEP, >0.4 U/ml phosphoenolpyruvate carboxylase (microbial), >4.1 U/ml malate dehydrogenase (mammalian) and 0.6 mM NADH analog in a final volume of 0.5 ml.
For the AZ inhibition experiment, the ODC enzyme (0.19 µM) and various amounts of AZ were added to the reaction mixture. The reaction was started after the ODC was added, and the absorbance decrease at 405 nm was continuously traced using a Perkin-Elmer Lamba-25 spectrophotometer. In this coupled reaction, the production of 1 mol of CO2 was concomitant with the oxidation of 1 mol of NADH analog. An extinction coefficient of 2410 M ^−1 was used for the NADH analog in the calculations.
(§2) To evaluate the inhibitory effect of AZ, the inhibited ODC enzyme activity versus [AZ] was fitted with the following equation to estimate the IC50 value: [drawing 1] where A and B are the minimum and maximum ODC enzyme activity, respectively, and the Hill slope gives the largest slope of the curve. The IC50 value represents the concentration of AZ required for 50% inhibition of ODC enzyme activity. All of the calculations were done using the SigmaPlot 10.0 software program (Jandel, San Rafael, CA).

[2] = biological target: human ODC (equilibrated with equimolar AZI); assay: ODC enzyme activity inhibition by AZ peptides in the presence of AZI; format: biochemical; details: for IC50 (with AZI)/IC50 (without AZI): ratio with/without equimolar AZI
Experimental: AZ has a greater affinity for AZI than ODC, such that the formation of an AZ-AZI heterodimer will release the ODC monomer from an AZ-ODC complex and rapidly restore ODC enzyme activity. Here, we examined the inhibition of ODC enzyme activity by AZ peptides in the presence of AZI. The ODC enzyme was first pre-incubated with AZI, keeping the molar ratio of AZI monomer/ODC monomer at unity. […] Table 1 illustrates the IC50 values of the AZ peptides in the presence of AZI, showing that all of the IC50 values for the AZ peptides with AZI were larger than the values without AZI.
Figure 4 Relative ODC enzyme activities in the presence of AZ and AZI. ODC enzymes equilibrated with equimolar AZI were inhibited by various concentrations of AZ peptides. The concentrations of AZI and ODC were fixed at 18.9 µg/mL and 20 µg/mL, respectively (the ratio of AZI monomer versus ODC monomer was fixed at 1). Panels A–H show the inhibition curves of ODC for each AZ peptide in the absence (closed circles) and in the presence (open circles) of AZI.
as §1, §2

[3] = system: human ODC; assay: AZ peptide-ODC complex size distribution by analytical ultracentrifugation; format: binding; details: for K d,AZ-ODC fold higher than that of AZ_WT: ratio to AZ_WT
Experimental: AZ binds ODC, dissociates the ODC dimer and then inactivates the enzyme, [20]. […] In order to determine the differential binding affinity of these AZ peptides toward ODC, the size distributions of ODC with different concentrations of AZ peptides were analyzed. All sedimentation data were globally fitted with the AB hetero-association model in the SEDPHAT program to obtain the dissociation constant (K d) between ODC and AZ (Figure 3 and Table 2).
Figure 3 Continuous sedimentation coefficient distribution of human ODC in the presence of AZ peptide. The concentration of ODC was fixed at 0.3 mg/mL with concentrations of AZ ranging from 0.015 to 0.2 mg/mL (the molar ratio of AZ/ODC ranged from 0.12 to 2) in a buffer of 30 mM Tris-HCl (pH 7.4) and 25 mM NaCl at 20°C. The sedimentation velocity data were globally fitted with the SEDTHAT program to obtain K d values for the AZ peptide-ODC complex (Table 2).
A Beckman Optima XL-A analytical ultracentrifuge was used for sedimentation velocity experiments. Reference and sample sectors in the centerpiece were filled with buffer (400 µl) and sample protein (0.3 mg/mL, 380 µl), respectively, and then the cell was built up in an An-50 Ti rotor. Sedimentation velocity experiments were performed at 20°C with a rotor speed of 42,000 rpm. The data were traced by absorbance at 280 nm in continuous mode, with a time interval of 420 s and a step size of 0.002 cm. A total of 20–30 scans at different time points were collected and fitted to a continuous size distribution model using the program SEDFIT [54]–[55]. All size distributions were calculated at 0.1 to 20 S with a confidence level of p = 0.95 and a resolution N of 200.
In order to determine the dissociation constants (K d) of the AZ peptide-ODC and AZ peptide-AZI complexes, sedimentation velocity experiments were performed at different concentrations of AZ or AZ peptide with a constant concentration of human ODC or AZI. The K d values of the AZ peptide-ODC and AZ peptide-AZI complexes were calculated by a global fitting of all sedimentation data in the AB hetero-association model in the SEDPHAT program [56]–[57]. The partial specific volumes of the proteins, the solvent densities, and the viscosity were calculated by the SEDNTERP program.

Substance	IC50 (AZ peptide)/IC50 (AZ_WT) [1]	IC50 (with AZI)/IC50 (without AZI) [2]	IC50 [1] [nM]	Inhibition of ODC with AZI relative to AZ_WT or to without AZI (in words) ([2]; equimolar AZI, Figure 4)	ODC inhibition ability (in words) [1]	K d,AZ-ODC fold higher than that of AZ_WT [3] [fold]	Size distribution of ODC in the presence of AZ (in words) ([3]; sedimentation velocity, 20°C, Figure 3)
AZ_87-228: truncated human AZ protein, residues 87-228	1.1		170				
AZ_95-169: truncated human AZ protein, lacking β-strand 6, residues 95-169	2.3		370		displayed a noteworthy decrease in ODC inhibition ability		
AZ_95-228: truncated human AZ protein, residues 95-228	1.0	3.5			also similar to that of AZ_WT	2.1	
AZ_100-124: truncated human AZ protein, residues 100-124	5.0		820		notably weaker inhibition ability than AZ_100-228		
AZ_126-228: truncated human AZ protein, residues 126-228	7.3		1190				
AZ_152-228: truncated human AZ protein, residues 152-228					almost no ODC inhibition, even at high concentrations of AZ		
AZ_177-228: truncated human AZ protein, residues 177-228 (HKNREDRAALLRTFSFLGFEIVRPGHPLVPKRPDACFMAYTFERESSGEEEE; UniProt P54368 177-228, looked up, fragment)					almost no ODC inhibition, even at high concentrations of AZ; also recorded: displays no inhibition of ODC activity		
Antizyme [AZ_WT]	1.0	3.1		lower than in the absence of AZI			disrupted dimeric ODC to form AZ-ODC complexes

Now from value to substance, other results behind:

IC50 (AZ peptide)/IC50 (AZ_WT) [1]	IC50 (with AZI)/IC50 (without AZI) [2]	IC50 [1] [nM]	Inhibition of ODC with AZI relative to AZ_WT or to without AZI (in words) ([2]; equimolar AZI, Figure 4)	Substance	ODC inhibition ability (in words) [1]	K d,AZ-ODC fold higher than that of AZ_WT [3] [fold]	Size distribution of ODC in the presence of AZ (in words) ([3]; sedimentation velocity, 20°C, Figure 3)
3.2	3.0			AZ_87-124: truncated human AZ protein, residues 87-124			
4.0	3.0			AZ_95-124: truncated human AZ protein, residues 95-124			
3.2	3.1			AZ_95-135: truncated human AZ protein, residues 95-135			
1.2	3.4			AZ_95-176: minimal AZ peptide fully functioning in the binding of ODC and AZI, residues 95-176	retained most of the inhibition ability	7.8	
5.3		860		AZ_100-135: truncated human AZ protein, residues 100-135	notably weaker inhibition ability than AZ_100-228		
2.6	3.3			AZ_100-176: truncated human AZ protein, residues 100-176	had a lower inhibition ability than that of AZ_100-228; also recorded: not as good as that of AZ_95-176 or AZ_100-228		
1.3	3.0			AZ_100-228: truncated human AZ protein, residues 100-228		7.5	
2.3		370		AZ_106-228: truncated human AZ protein, residues 106-228	weaker inhibition ability than AZ_100-228		
6.0		970		AZ_114-228: truncated human AZ protein, residues 114-228			
